Key:
[1] = system: UT-SCC-9, UT-SCC-27, UT-SCC-54C, and UT-SCC-76; assay: PamChip kinase inhibition profiles of 4 patient derived head and neck squamous cell carcinoma cell lines; type: biochemical; settings: selected set of peptides, FIG. 3b
Protocol: Cells were harvested and were lysed in Mammalian Extraction Buffer (M-PER, Pierce) containing phosphatase and protease inhibitors (HALT, Pierce). Five microliter of the lysis solution was pipetted into a reaction mixture composed of 1×ABL buffer (New England Biolabs, cat.nr B6050S), 0.1% Bovine Serum Albumin, 100 μM ATP, 20 μg/ml phosphotyrosine antibody to an end volume of 40 microliter. Before incubation a blocking step was carried out on the substrate arrays with 0.2% bovine serum albumin. […] Real time data were obtained by measuring fluorescence of the bound anti-phosphotyrosine antibody after each 5 cycles. Image quantification and data processing was conducted with dedicated Pamgene software (Evolve and Bionavigator).
The 4 cell lines chosen, UT-SCC-9, UT-SCC-27, UT-SCC-54C, and UT-SCC-76 are patient derived cell lines, known to respond differently to radiation (in a model for therapy in head and neck cancer, squamous cell carcinomas, especially). […] The data shown are from a selected set of peptides of which the ratios of phosphorylation in the absence (0) and presence of the inhibitor are represented.

[2] = system: Non Small Cell Lung Cancer (NSCLC) tissue; assay: PamChip kinase activity of NSCLC tumor tissue lysates with and without inhibitor; type: biochemical; settings: 1 μmol/L inhibitor, short vs long survival patients, data not shown

Row | Compound | inhibition profiles (ratios of phosphorylation in the absence and presence of the inhibitor), differences between cell lines [1] | differences between the phosphorylation profiles with and without the protein kinase inhibitor [2]
1 | Cc1ccc(-c2nn(C(C)(C)C)c3ncnc(N)c23)cc1 [PP1] | pronounced differences | 
2 | COc1cc2ncnc(Nc3ccc(F)c(Cl)c3)c2cc1OCCCN1CCOCC1 [Gefitinib] |  | a number of essential differences
